Entries after “also recorded” stand apart in the source; their conditions may differ.

In series [1] the test system is parent MCF-7 cell line. Kind of series: Clonigenic tumor-cell killing assay, parent MCF-7 (14C-glucose, Bactec, day 9). The format is cell-based. The note with it: Homo sapiens, MCF7, 216 h. An excerpt:
(§1) The paired-ion doxorubicin:dermatan sulfate (essentially purified dermatan sulfate, 435 Type, Opocrin) of Example 28 (=doxorubicin:DS), is compared to standard doxorubicin liquid (Adria Laboratories), for tumor-cell killing potency in a clonigenic assay, using the following human breast cancer cell lines: parent MCF-7 cell line and adriamycin/doxorubicin-resistant MCF-7 cell line. For each group, five serial dilutions of each formulation were mixed on day 0, with an appropriate number of cells, growth medium and ^14 C-labelled glucose, the mixture then injected into serum vials pre-gassed with 5% CO2, and the vials incubated at 37° C. (with cells continuously exposed to drug). […] Results are shown in Table 5 for the day of peak counts (day 9): […]

Series [2] relates to adriamycin/doxorubicin-resistant MCF-7 cell line. Kind of series: Clonigenic tumor-cell killing assay, doxorubicin-resistant MCF-7 (14C-glucose, Bactec, day 9). The format is cell-based, human.
Description: as §1

A short description of series [3]: Acute in vivo toxicity of doxorubicin:dermatan sulfate vs standard doxorubicin (day of death). Also noted: species or system male Balb/c mice. The settings on record: 22.5 mg/Kg i.v. The source says:
The days of death are: doxorubicin:DS: modal day=6, mean=5.5±0.9 SE; standard doxorubicin: modal day=day 5, mean=4.8±0.5SE.

Series [4] has as its system AT-1 prostate carcinomas. Kind of series: Acute in vivo tumor localization and tumor-cell internalization by fluorescence microscopy. Also noted: species or system Copenhagen rats. On the procedure:
FIG. 21A. Frozen 8-micron thick section of prostate adenocarcinoma (outer 2/3 of tumor of ca. 4 cm diameter), excised from its host rat (Copenhagen strain, syngeneic) 3 hours after intravenous injection of 5 mg/Kg doxorubicin:DS (doxorubicin in association with essentially purified dermatan sulfate, 435 Type, Opocrin) at a weight ratio of 60:40 (doxorubicin to dermatan sulfate), and fluorescence microscopy performed using a rhodamine-type filter to elicit direct fluorescence of the doxorubicin drug substance (see also Example 29). […] This is indicative of high tumor-cell internalization of the doxorubicin drug substance.
The paired-ion doxorubicin:dermatan sulfate (essentially purified dermatan sulfate, 435 Type, Opocrin) of Example 28 (=doxorubicin:DS) and standard doxorubicin liquid (Adria Laboratories) are injected at 5 mg/kg of doxorubicin i.v., into Copenhagen rats with AT-1 prostate carcinomas grown in a skin pouch (to mimic growth at deep organ sites). The rats are sacrificed at 3 hours after injection, the tumors and major organs removed, the cut tumors & organ pieces placed in OCT polymer and frozen at […], and cryostat sections cut at 8 um and coverslipped. Fluorescence microscopy is performed by exciting the sections using a rhodamine-type bandpass filter (at ca. 485 nm--in order to selectively excite doxorubicin) and assessing direct doxorubicin fluorescence (at an emission wavelength greater than 530 nm) to determine the following: […]

For series [5] the following is noted: mouse, in vivo; cited from earlier work.

`COc1cccc2c1C(=O)c1c(O)c3c(c(O)c1C2=O)C[C@@](O)(C(=O)CO)C[C@@H]3O[C@H]1C[C@H](N)[C@H](O)[C@H](C)O1` [Standard doxorubicin]: in series [1], the half-maximal inhibitory concentration (IC50) – broadly, the point on the concentration scale where inhibition reaches its midpoint – is 20 nM and the IC90 – broadly, the point of the concentration-response curve where the effect stands at 90% – was 60 nM. In series [2], the “ability to overcome resistance” value is reported as “unable to do so”. This molecule also yielded an IC50 in series [2] (Homo sapiens, MCF7, 216 h, day 9) of 22300 nM. Moreover, the IC90 entry in series [2] (day 9) is given as “not achieved”. For the same molecule, in series [3], the “modal day of death” value was 5 days. Moreover, the “mean day of death” value in series [3] (± SE) stood at 4.8 ± 0.5 days. In series [4] (5 mg/Kg i.v., 3 hours), the “direct drug fluorescence in tumor cells” value is on record as “markedly lower fluorescence”; the “fluorescence of endothelium / microvessels” value is “general lack of fluorescence in and around the large tumor microvessel; also recorded: general lack of fluorescence in and around tumor microvessel (image center) and in tumor-cell nuclei”; the “fluorescence of tumor-cell nuclei” value was “no identifiable fluorescence in the tumor-cell nuclei”. For the same molecule, the “Fluorescence near capillaries (scale of 0 to 4+)” value in series [4] (2/3 of regions) was 0. Besides, the “Fluorescence away from capillaries (scale of 0 to 4+)” value in series [4] (Adriamycin PFS: most regions, doxorubicin:DS: ca. 8/10 of regions) is listed as 0. In series [4] (rat, in vivo), the “Endothelial fluorescence (scale of 0 to 4+)” value is listed as 0 and the “Endothelial nuclear fluorescence (scale of 0 to 4+)” value came to 0. The “reported LD90 in mice” value in series [5] was 22.5 mg/kg.

Source of the values: patent publication US6106866A, “In vivo agents comprising cationic drugs, peptides and metal chelators with acidic saccharides and glycosaminoglycans, giving improved site-selective localization, uptake mechanism, sensitivity and kinetic-spatial profiles, including tumor sites” (Access Pharmaceuticals, Inc., priority 1995, dated 2000).
